In US8835134B2, “Cycloastragenol monoglucoside, preparation, pharmaceutical composition and application thereof” (Tianjin Institute of Pharmaceutical Research, priority 2007, dated 2014):

System: anesthetized open-chest dogs
Experiment: Hemodynamics of anesthetized open-chest dogs, intravenous infusion
Format: in vivo, mongrel dogs
Description: The animals were anesthetized by intravenous injection of 30 mg/kg sodium pentobarbital, tracheally intubated, and mechanically ventilated with positive air pressure. Left thoracotomy was performed through the fourth intercostal space and the heart was suspended in a pericardial cradle, the aortic root was isolated and a probe of blood flow meter (12 or 14 mm in diameter) was fixed to measure the aortic blood flow as a representation of cardiac output (CO), the circumflex branch of left coronary artery was isolated and a probe of blood flow meter (2 or 2.5 mm in diameter) was fixed to measure the coronary blood flow (CBF). A polyethylene catheter filled with heparin physiological saline was inserted through cardiac apex into the left ventricle to measure the left ventricular pressure (LVP) and left ventricular end-diastolic pressure (LVEDP), Peak positive and peak negative first derivatives of the LVP (+ LVdp/dt and − LVdp/dt) were calculated with the Acknowledge software. The systolic blood pressure (SBP), diastolic blood pressure (DBP) and mean arterial pressure (MAP) were measured by polyethylene catheter via the femoral artery, ECG □ was measured by a AC-601G ECG amplifier. The above-mentioned analog signal was input into a data acquisition workstation (MP100, BIOPAC Systems, USA) to a computer running Acknowledge (version 3.7.1).
After surgery, various indexes before administration were recorded until the indexes were stable, and then intravenous infusion administration was conducted. Thirty dogs were divided into five groups (six dogs in each group), the experiment groups were given 0.15, 0.3, 0.6 mg/kg of ASP-[…] respectively, the normal control group was given 1 ml/kg of solvent, and the positive control group was given 0.3 mg/kg of astragaloside IV. The delivery volumes were 15 ml for each dog was and the delivery velocity was 1 ml/min. The indexes were recorded at 5, 10, 15, 20, 30, 45, 60, 90 and 120 mins after drug administration. At the end of experiment, the hearts were excised and weighted. The myocardial blood flow for per hectogram (CF), coronary resistance (CR), cardiac index (CI), left ventricular work (LVW) and total peripheral resistance (TPR) were calculated according to the following formulae: CF=CBF×[…]/heart weight CR=MAP/CF CI=CO/0.11×(body weight)^2/3 LVW=CO×(MAP−5)×1.052×0.0136 TPR=MAP×79.92/CO
Data are expressed as mean±SD ( x±s), the paired t-test was used to compare the significance between before and after administration, the unpaired t-test was adopted for comparison between groups.

[1] = 0.15 mg/kg iv, 90 min after administration
[2] = 0.15 mg/kg iv, 120 min after administration
[3] = 0.15 mg/kg iv, before administration
[4] = 0.3 mg/kg iv, 5 min after administration
[5] = 0.3 mg/kg iv, 10 min after administration
[6] = 0.3 mg/kg iv, 15 min after administration
[7] = 0.3 mg/kg iv, 20 min after administration
[8] = 0.3 mg/kg iv, 30 min after administration

## CC(C)(O)[C@@H]1CC[C@](C)([C@H]2[C@@H](O)C[C@@]3(C)C4C[C@H](OC5OC(CO)C(O)C(O)C5O)C5C(C)(C)[C@@H](O)CC[C@@]56C[C@@]46CC[C@]23C)O1 (stereo partly drawn) [CMG, Cycloastragenol-6-O-β-D-glucoside]
[1]
  CO change vs before administration: (−0.15 ± 0.24) L/min
  CR: 1.36 ± 0.37 mmHg/ml/min/100 g
  CR change vs before administration: (0.00 ± 0.24) mmHg/ml/min/100 g
  LVEDP: 1.4 ± 2.4 mmHg
  LVEDP change vs before administration: (−0.40 ± 0.43) mmHg
  LVP: 101 ± 18 mmHg
  LVP change vs before administration: (−3.5 ± 7.6) mmHg
  LVW: 0.96 ± 0.24 kg · m
  LVW change vs before administration: (−0.16 ± 0.34) kg · m
  TPR: 5576 ± 2153 dyn · s/cm^5
  TPR change vs before administration: (426 ± 770) dyn · s/cm^5
  dp/dt: 1121 ± 412 mmHg/s
  dp/dt change vs before administration: (−28 ± 90) mmHg/s
  −dp/dt: −857 ± 243 mmHg/s
  −dp/dt change vs before administration: (31 ± 128) mmHg/s
[2]
  CF: 56.5 ± 16.6 ml/min/100 g
  CF change vs before administration: (−1.2 ± 13.7) ml/min/100 g
  CI: 1.79 ± 0.37 L/min/m^2
  CI change vs before administration: (−0.29 ± 0.45) L/min/m^2
  CO: 1.03 ± 0.19 L/min
  CO change vs before administration: (−0.17 ± 0.28) L/min
  CR: 1.35 ± 0.44 mmHg/ml/min/100 g
  CR change vs before administration: (−0.01 ± 0.25) mmHg/ml/min/100 g
  LVEDP: 1.6 ± 2.3 mmHg
  LVEDP change vs before administration: (−0.15 ± 0.44) mmHg
  LVP: 103 ± 22 mmHg
  LVP change vs before administration: (−1.8 ± 8.1) mmHg
  LVW: 0.99 ± 0.36 kg · m
  LVW change vs before administration: (−0.13 ± 0.37) kg · m
  TPR: 5734 ± 1774 dyn · s/cm^5
  TPR change vs before administration: (584 ± 1030) dyn · s/cm^5
  dp/dt: 1138 ± 387 mmHg/s
  dp/dt change vs before administration: (−11 ± 92) mmHg/s
  −dp/dt: −897 ± 263 mmHg/s
  −dp/dt change vs before administration: (−9 ± 176) mmHg/s
[3]
  CF: 57.7 ± 24.1 ml/min/100 g
  CI: 2.08 ± 0.63 L/min/m^2
  CO: 1.21 ± 0.38 L/min
  CR: 1.35 ± 0.44 mmHg/ml/min/100 g
  LVEDP: 1.8 ± 2.2 mmHg
  LVP: 105 ± 22 mmHg
  LVW: 1.12 ± 0.42 kg · m
  TPR: 5150 ± 2321 dyn · s/cm^5
  dp/dt: 1150 ± 391 mmHg/s
  −dp/dt: −888 ± 310 mmHg/s
0.15 mg/kg iv, within 120 min
  ±LVdp/dtmax: no significant change
0.3 mg/kg iv
  LVEDP maximum decrease: 1.5±0.8 mmHg
[4]
  CF: 51.7 ± 20.7 ml/min/100 g
  CF change vs before administration: (1.5 ± 5.3) ml/min/100 g
  CI: 2.09 ± 0.86 L/min/m^2
  CI change vs before administration: (0.11 ± 0.16) L/min/m^2
  CO: 1.16 ± 0.39 L/min
  CO change vs before administration: (0.06 ± 0.09) L/min
  CR: 1.57 ± 0.74 mmHg/ml/min/100 g
  CR change vs before administration: (0.04 ± 0.17) mmHg/ml/min/100 g
  LVEDP: 1.3 ± 2.5 mmHg
  LVEDP change vs before administration: (−0.39 ± 0.38) mmHg
  LVP: 107 ± 21 mmHg
  LVP change vs before administration: (4.1 ± 4.9) mmHg
  LVW: 1.12 ± 0.49 kg · m
  LVW change vs before administration: (0.10 ± 0.07) kg · m
  TPR: 5248 ± 1878 dyn · s/cm^5
  TPR change vs before administration: (−52 ± 829) dyn · s/cm^5
  dp/dt: 1308 ± 448 mmHg/s
  dp/dt change vs before administration: (47 ± 34) mmHg/s
  −dp/dt: −958 ± 313 mmHg/s
  −dp/dt change vs before administration: (−37 ± 44) mmHg/s
[5]
  CF: 53.5 ± 21.1 ml/min/100 g
  CF change vs before administration: (3.3 ± 3.2) ml/min/100 g
  CI: 1.96 ± 0.85 L/min/m^2
  CI change vs before administration: (−0.03 ± 0.23) L/min/m^2
  CO: 1.09 ± 0.39 L/min
  CO change vs before administration: (−0.01 ± 0.14) L/min
  CR: 1.50 ± 0.71 mmHg/ml/min/100 g
  CR change vs before administration: (−0.03 ± 0.12) mmHg/ml/min/100 g
  LVEDP: 1 ± 2.4 mmHg
  LVEDP change vs before administration: (−0.75 ± 0.34) mmHg
  LVP: 106 ± 22 mmHg
  LVP change vs before administration: (2.3 ± 6.9) mmHg
  LVW: 1.02 ± 0.44 kg · m
  LVW change vs before administration: (0.00 ± 0.15) kg · m
  TPR: 5683 ± 2354 dyn · s/cm^5
  TPR change vs before administration: (384 ± 1293) dyn · s/cm^5
  dp/dt: 1358 ± 444 mmHg/s
  dp/dt change vs before administration: (97 ± 68) mmHg/s
  −dp/dt: −925 ± 299 mmHg/s
  −dp/dt change vs before administration: (−4 ± 80) mmHg/s
[6]
  CF: 51.3 ± 21.1 ml/min/100 g
  CF change vs before administration: (1.1 ± 4.2) ml/min/100 g
  CI: 1.98 ± 0.84 L/min/m^2
  CI change vs before administration: (−0.01 ± 0.28) L/min/m^2
  CO: 1.10 ± 0.38 L/min
  CO change vs before administration: (0.00 ± 0.17) L/min
  CR: 1.56 ± 0.76 mmHg/ml/min/100 g
  CR change vs before administration: (0.02 ± 0.15) mmHg/ml/min/100 g
  LVEDP: 0.7 ± 2.6 mmHg
  LVEDP change vs before administration: (−1.06 ± 0.54) mmHg
  LVP: 106 ± 20 mmHg
  LVP change vs before administration: (2.3 ± 5.4) mmHg
  LVW: 1.02 ± 0.44 kg · m
  LVW change vs before administration: (0.00 ± 0.16) kg · m
  TPR: 5535 ± 2356 dyn · s/cm^5
  TPR change vs before administration: (236 ± 1386) dyn · s/cm^5
  dp/dt: 1367 ± 470 mmHg/s
  dp/dt change vs before administration: (106 ± 54) mmHg/s
  −dp/dt: −947 ± 308 mmHg/s
  −dp/dt change vs before administration: (−25 ± 74) mmHg/s
[7]
  CF: 51.4 ± 19.2 ml/min/100 g
  CF change vs before administration: (1.2 ± 4.0) ml/min/100 g
  CI: 1.94 ± 0.81 L/min/m^2
  CI change vs before administration: (−0.04 ± 0.11) L/min/m^2
  CO: 1.08 ± 0.36 L/min
  CO change vs before administration: (−0.02 ± 0.06) L/min
  CR: 1.51 ± 0.68 mmHg/ml/min/100 g
  CR change vs before administration: (−0.02 ± 0.14) mmHg/ml/min/100 g
  LVEDP: 0.6 ± 2.5 mmHg
  LVEDP change vs before administration: (−1.16 ± 0.89) mmHg
  LVP: 104 ± 23 mmHg
  LVP change vs before administration: (1.2 ± 6.9) mmHg
  LVW: 1.02 ± 0.47 kg · m
  LVW change vs before administration: (0.00 ± 0.05) kg · m
  TPR: 5513 ± 1980 dyn · s/cm^5
  TPR change vs before administration: (214 ± 869) dyn · s/cm^5
  dp/dt: 1348 ± 487 mmHg/s
  dp/dt change vs before administration: (87 ± 77) mmHg/s
  −dp/dt: −937 ± 289 mmHg/s
  −dp/dt change vs before administration: (−16 ± 91) mmHg/s
[8]
  CF: 51.4 ± 24.5 ml/min/100 g
  CF change vs before administration: (1.2 ± 6.2) ml/min/100 g
  CI: 1.92 ± 0.78 L/min/m^2
  CI change vs before administration: (−0.06 ± 0.30) L/min/m^2
  CO: 1.07 ± 0.36 L/min
  CO change vs before administration: (−0.03 ± 0.18) L/min
  CR: 1.51 ± 0.74 mmHg/ml/min/100 g
  CR change vs before administration: (−0.02 ± 0.09) mmHg/ml/min/100 g
  LVEDP: 0.6 ± 2.4 mmHg
  LVEDP change vs before administration: (−1.11 ± 0.87) mmHg
  LVP: 102 ± 23 mmHg
  LVP change vs before administration: (−1.3 ± 4.7) mmHg
  LVW: 0.97 ± 0.46 kg · m
  LVW change vs before administration: (−0.05 ± 0.13) kg · m
  TPR: 5318 ± 2153 dyn · s/cm^5
  TPR change vs before administration: (19 ± 1444) dyn · s/cm^5
  dp/dt: 1304 ± 459 mmHg/s
  dp/dt change vs before administration: (43 ± 100) mmHg/s
  −dp/dt: −885 ± 293 mmHg/s
